Laboratory results published in publication PMC8760323, “Single-chain tandem macrocyclic peptides as a scaffold for growth factor and cytokine mimetics” (Communications Biology, 2022).
Read-outs that look alike come from different tables or passages of the source.

How the values were obtained:
[1] = target: T1, recombinant human Met ectodomain-Fc (Homo sapiens, UniProt P08581); experiment: SPR analysis, human Met ectodomain; assay type: binding
T1 construct: recombinant human Met ectodomain-Fc; purchased R&D Systems
Procedure: Binding constants of the STaMPtides and monomeric macrocyclic peptides to their corresponding receptor ectodomains were determined by SPR analysis using Biacore T200 (Cytiva). HBS-EP + buffer (Cytiva) containing 0.1% dimethyl sulfoxide (DMSO; Sigma-Aldrich, St. Louis, MO, USA) was used as the running buffer. As ligands, recombinant human Met ectodomain-Fc and human EPOR ectodomain-Fc were immobilized to around 1000 response units on CM5 sensor chips using a human antibody capture kit (Cytiva). STaMPtides and monomeric macrocyclic peptides were injected in five concentrations at a flow rate of 30 μL/min using a single-cycle kinetics method. Binding constants were quantified by analysis of the 1:1 binding model.

Met = experiment: Cell-based phospho-Met ELISA (HuCCT1 cells); set-up: species or system human; details: phospho-Met ELISA and Erk signaling reporter assay
Procedure: The phosphorylation level of Met was evaluated according to a previously reported method[6],[32], with slight modifications. In brief, HuCCT-1 cells at a density of 10,000 cells/well were seeded on 96-well cell culture plates and incubated overnight in 5% CO2 at 37 °C. The cells were stimulated by rhHGF, purified HGF mimetic STaMPtides, and monomeric aMD4dY for 10 min in a 5% CO2 incubator at 37 °C. Next, cells were fixed using 4% paraformaldehyde in phosphate-buffered saline (PBS) for 20 min. Cells were washed three times with PBS and blocked with 1% BSA and 0.02% Triton X-100 in PBS for 30 min at room temperature. Cells were incubated with 1:1000 diluted phospho-Met (Tyr1234/1235) (D26) XP Rabbit mAb (Cell Signaling Technology) supplemented with 1% BSA in PBS at 4 °C overnight. After washing three times with PBS, the cells were incubated with 1:1000 diluted […] HRP-linked IgG antibody (Cell Signaling Technology) supplemented with 1% BSA in PBS at room temperature for 3 h. Cells were washed four times with PBS and incubated with 100 μL TMB substrate for 30 min. The reaction was stopped with an equal volume of 0.2 N sulfuric acid, and absorbance was quantified at 450 nm by the Molecular Imager ChemiDoc XRS System (Bio-Rad).

HuCCT1 cells [2] = experiment: Proliferation assay, HuCCT1 cells; assay type: cell-based, human; details: 5 days, 0.44 nM rhHGF or […] aMD4dY-PA22; for Relative cell growth: normalized by mock
Procedure: The activity of aMD4dY-PA22 against HuCCT1 cell and BM-hMSC proliferation was evaluated. HuCCT1 cells at a density of 5000 cells/well were seeded on a 24-well cell culture plate with RPMI 1640 medium supplemented with 5% FBS with or without 0.44 nM rhHGF or 6.3 nM aMD4dY-PA22. After 5 days of culture in 5% CO2 at 37 °C, the cells were detached by 0.25% trypsin/ethylenediaminetetraacetic acid (EDTA; Thermo Fisher Scientific) and counted using a Countess automated cell counter (Thermo Fisher Scientific).

BM-hMSCs = experiment: Proliferation assay, BM-hMSCs (WST-8); assay type: cell-based, human; details: 3 days, 1.3 nM rhHGF or 32 nM aMD4dY-PA22; for WST-8 absorbance, Normalized: normalized by mock
Procedure: BM-hMSC cells at a density of 2500 cells/well were seeded on a 96-well cell culture plate with DMEM supplemented with 10% FBS with or without 1.3 nM rhHGF or 32 nM aMD4dY-PA22. After 3 days of culture in 5% CO2 at 37 °C, Cell Counting Reagent SF (Dojindo Laboratories, Japan) was added to the cells. After 1 h incubation, cell numbers were quantified by detection of absorbance at 450 nm using the Benchmark Plus plate reader (Bio-Rad Laboratories, Hercules, CA, USA).

HuCCT1 cells [3] = experiment: Migration assay (Transwell); assay type: cell-based, human; details: 24 h, 1.3 nM rhHGF or 32 nM aMD4dY-PA22; for Relative migration: standardized by mock
Procedure: HuCCT1 cells at a density of 20,000 cells/well in RPMI 1640 medium supplemented with 0.5% FBS were added to 24-well Transwell inserts. In the lower layer, RPMI 1640 supplemented with 0.5% FBS with or without 1.3 nM rhHGF or 32 nM aMD4dY-PA22 was added. The cells were incubated for 24 h in 5% CO2 at 37 °C. The Transwell inserts were washed thrice with PBS, stained with 0.5% crystal violet (Nacalai Tesque)/methanol for 10 min, and washed with distilled water. Images of migrated cells were captured using BZ-X fluorescence microscopy (Keyence Corporation, Osaka, Japan), and cell migration levels were quantified by stained areas of the Transwell inserts.

T1 sequence (P08581 25-932 limits assumed): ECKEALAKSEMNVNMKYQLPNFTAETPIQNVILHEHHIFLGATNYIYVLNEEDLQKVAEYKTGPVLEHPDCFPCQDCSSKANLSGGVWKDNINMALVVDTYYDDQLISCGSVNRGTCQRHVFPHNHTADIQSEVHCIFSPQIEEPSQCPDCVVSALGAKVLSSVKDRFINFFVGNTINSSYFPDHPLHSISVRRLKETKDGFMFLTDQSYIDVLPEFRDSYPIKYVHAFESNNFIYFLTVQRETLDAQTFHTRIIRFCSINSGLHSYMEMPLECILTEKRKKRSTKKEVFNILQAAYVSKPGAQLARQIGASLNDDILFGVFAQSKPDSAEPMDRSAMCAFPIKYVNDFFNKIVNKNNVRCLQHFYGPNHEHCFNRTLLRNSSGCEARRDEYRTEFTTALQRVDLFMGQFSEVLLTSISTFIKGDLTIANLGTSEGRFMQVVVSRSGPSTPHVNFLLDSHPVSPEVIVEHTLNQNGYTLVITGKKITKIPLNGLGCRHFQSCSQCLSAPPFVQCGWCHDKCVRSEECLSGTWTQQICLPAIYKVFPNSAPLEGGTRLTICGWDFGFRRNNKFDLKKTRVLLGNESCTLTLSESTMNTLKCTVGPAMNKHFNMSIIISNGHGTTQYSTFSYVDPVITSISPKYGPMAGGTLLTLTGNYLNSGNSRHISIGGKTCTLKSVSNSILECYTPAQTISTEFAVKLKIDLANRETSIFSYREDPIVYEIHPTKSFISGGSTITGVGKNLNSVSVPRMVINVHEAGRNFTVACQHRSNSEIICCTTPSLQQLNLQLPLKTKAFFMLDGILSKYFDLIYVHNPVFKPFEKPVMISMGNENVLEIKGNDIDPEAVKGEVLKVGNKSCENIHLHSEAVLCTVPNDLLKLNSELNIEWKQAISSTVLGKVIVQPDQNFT

| Substance | proliferation compared to the unstimulated condition (HuCCT1 cells [2]) | Relative cell growth (HuCCT1 cells [2]; N 1) | Relative cell growth (HuCCT1 cells [2]; N 2) | Relative cell growth (HuCCT1 cells [2]; N 3) | growth of BM-hMSCs (BM-hMSCs) | WST-8 absorbance, Normalized (BM-hMSCs; N 1) | WST-8 absorbance, Normalized (BM-hMSCs; N 2) | WST-8 absorbance, Normalized (BM-hMSCs; N 3) | migration (HuCCT1 cells [3]) | Stained area (HuCCT1 cells [3]; n1) [μm^2] | Stained/Total (HuCCT1 cells [3]; n1) | Stained area (HuCCT1 cells [3]; n2) [μm^2] | Stained/Total (HuCCT1 cells [3]; n2) | Relative migration (HuCCT1 cells [3]; n1) | Relative migration (HuCCT1 cells [3]; n2) | further results |
| --- | --- | --- | --- | --- | --- | --- | --- | --- | --- | --- | --- | --- | --- | --- | --- | --- |
| AET - CRQFNRRTHEVWNLDCG - AAPAAPA PAAPAAPA PAAPAA PG - CRQFNRRTHEVWNLDC (bicyclic or more) [aMD4dY-PA22, HGF mimetic STaMPtide, two aMD4dY macrocycles with a 22-amino-acid PA linker, secreted by C. glutamicum] | twofold | 2.429 | 2.429 | 2.571 | slightly promoted proliferation | 1.155 | 1.175 | 1.237 | promoted migration of HuCCT1 cells | 1905662 | 0.07439 | 1256153 | 0.04693 | 4.415 | 2.785 | Kd ([1]; Biacore T200, single-cycle kinetics, 1:1 binding model, N = 3, read-out: dissociation constant (KD)): 1 nM; kd ([1]; Table S1, Average of N 1-3): 0.00046 M⁻¹ s⁻¹; kd ([1]; Table S1, N 1): 0.0006 M⁻¹ s⁻¹; Kd ([1]; Table S1, N 1, read-out: KD): 1.3 nM; kd ([1]; Table S1, N 2): 0.00038 M⁻¹ s⁻¹; Kd ([1]; Table S1, N 2, read-out: KD): 0.9 nM; kd ([1]; Table S1, N 3): 0.00039 M⁻¹ s⁻¹; Kd ([1]; Table S1, N 3, read-out: KD): 0.85 nM; Met phosphorylation and Erk-SRE signaling activation (Met): at a comparable level with rhHGF |
| rhHGF: recombinant human HGF (R&D Systems) | twofold | 2.286 | 2.429 | 2.071 | slightly promoted proliferation | 1.1816 | 1.335 | 1.247 | promoted migration of HuCCT1 cells | 1050763 | 0.03941 | 1394072 | 0.04835 | 2.3393 | 2.87 | – |
